The values that follow are results of earlier work, collected in US20210361600A1, “METHODS FOR INDUCING CHONDROGENESIS” (THE SCRIPPS RESEARCH INSTITUTE, priority 2017, published 2021).

The test system of data set [1] is CBFβ. To be noted: previously demonstrated; cited from earlier work.
The test system of data set [2] is FLNA FC-1 fragment. The conditions noted are these: previously validated with BKA affinity probe; cited from earlier work.

As for `O=C(O)c1ccccc1C(=O)Nc1ccc(-c2ccccc2)cc1` [KGN, kartogenin], the “nuclear localization of CBFβ” value in data set [1] is listed as “increase the nuclear localization of CBFβ”. Besides, the “binding to FC-1 fragment of FLNA” value in data set [2] is “directly mediate the binding”.
